Test results reported in PMC6331934, “Study of the Biotransformation of Tongmai Formula by Human Intestinal Flora and Its Intestinal Permeability across the Caco-2 Cell Monolayer” (Molecules, 2015).

What was measured:
[1] = Bidirectional transport across the Caco-2 cell monolayer (Papp, efflux ratio, mass balance); details: human; for recovery at 90 min, 50 μM: mass balance, total amount in AP and BL sides, incubation up to 90 min, n = 3
[2] = Time course of TMF constituents during anaerobic biotransformation by human intestinal flora; assay type: in vitro ADME; details: male, human, human intestinal flora (faecal suspension in GAM); incubation by HIF; read-out: Time of maximum concentration
Procedure: (§1) The general anaerobic medium (GAM) of HIF was prepared as follows: 10.0 g of tryptone, 10.0 g of proteose peptone, 13.5 g of digested serum powder, 5.0 g of yeast extract, 2.2 g of beef extract, 1.2 g of beef liver extract powder, 3.0 g of glucose, 2.5 g of KH2PO4, 3.0 g of NaCl, 5.0 g of soluble starch, 0.3 g of L-cysteine hydrochloride, and 0.3 g of sodium thioglycolate were dissolved in H2O. Adjust the pH of GAM solution to 7.1–7.2 with 1M NaOH aqueous solution and supply the total volume to 1 L. Ten grams of fresh feces obtained from a healthy volunteer, who had not taken any medicine in three months, were immediately homogenized and suspended in GAM (50 mL) solution. The HIF was undertaken according to the previous paper of our laboratory. Preparation of the biotransformation products of TMF by HIF was followed by the method of previous research.
(§2) A biotransformation system consisting of HIF (10 mL) and TMF (10 mg) was anaerobically incubated at 37 °C. All experiments were carried out in sextuplicate at each time point. The biotransformation reaction was stopped at 0.5, 1, 2, 4, 8, 12, 24, 36, 48, 60 h. The biotransformation solution was extracted with n-butanol (each 10 mL) three times. The combined n-butanol layer was evaporated to dryness under a gentle stream of nitrogen. MeOH (400 μL) was used to dissolve the residue which acted as a deproteinization agent. The resultant solution was vortex-mixed for 1 min and centrifuged at 16,000 g for 10 min at 4 °C. The supernatant was collected and filtered through a 0.22 μm filter as the test solution. The blank sample was prepared using TMF-free medium solution with the same processing steps. […] The column temperature was set at 30 °C and detection wavelength was set at 254 nm.

[3] = test system: human intestinal flora (HIF); experiment: as above; assay type: in vitro ADME; details: for Reduction of content (fold): after 60 h incubation by HIF; for Increase of content (fold): 60 h incubation by HIF
Procedure: as §1, §2

Caco-2 cell monolayer = experiment: Bidirectional transport across the Caco-2 cell monolayer (Papp, efflux ratio, mass balance); details: Caco-2 monolayer; classes after ref 18
in vitro = details: human
[4] = test system: RAW 264.7 murine macrophages cells; set-up: method as in PMID 22644850; details: RAW 264.7 cells; compared with daidzin; cited from earlier work
[5] = Caco-2, pH 7.4, Level (order of magnitude) of Papp, Caco-2 monolayer
[6] = Caco-2, pH 7.4, Total Recovery (%) AP→BL
[7] = Caco-2, pH 7.4, Total Recovery (%) BL→AP
[8] = Caco-2, pH 7.4, Absorption class by Papp, Caco-2 monolayer, classes after ref 18

SMILES | Papp A→B at 90 min, 50 μM ([1]; Caco-2, pH 7.4) | Papp B→A at 90 min, 50 μM ([1]; Caco-2, pH 7.4) | efflux ratio at 1 h, 50 μM ([1]; Caco-2, pH 7.4) | Papp at 1 h, 50 μM [1, 5] | recovery at 90 min, 50 μM [1, 6] | recovery at 90 min, 50 μM [1, 7] | also measured
COc1ccc(C2=CC(=O)OC2Cc2ccc(O)cc2)c(OC2OC(CO)C(O)C(O)C2O)c1 (racemic) [Compound 8, (±)-puerol B-2″-O-glucopyranoside] | 1.29 ± 0.28 ×10⁻⁶ cm/s | 1.03 ± 0.09 ×10⁻⁶ cm/s | 0.8 | ~1 ×10⁻⁶ cm/s | 77% | 91.4% | 
O=Cc1ccc(O)c(O)c1 [Compound 2, protocatechuic aldehyde] |  |  |  |  |  |  | Content remaining ([3]; at 60 h incubation by HIF): ~50%
O=c1c(-c2ccc(O)cc2)coc2c([C@@H]3O[C@H](CO)[C@@H](O)[C@H](O)[C@H]3O)c(O)ccc12 [Compound 4, puerarin] | 0.68 ± 0.02 ×10⁻⁶ cm/s | 0.41 ± 0.01 ×10⁻⁶ cm/s | 0.6 | ~0.1 ×10⁻⁶ cm/s | 96.6% | 95.7% | Absorption class by Papp (Caco-2 cell monolayer): poorly absorbed
O=c1c(-c2ccc(O)cc2)coc2cc(O[C@@H]3O[C@H](CO)[C@@H](O)[C@H](O)[C@H]3O)ccc12 [Compound 7, daidzin] | 0.4 ± 0.01 ×10⁻⁶ cm/s | 0.37 ± 0.01 ×10⁻⁶ cm/s | 0.92 |  | 99.8% | 98.5% | Reduction of content (fold) [3]: 10 fold; Conversion by HIF ([3]; during the 60 h incubation by HIF): almost completely converted into daidzein (10); Absorption class by Papp (Caco-2 cell monolayer): poorly absorbed; Papp at 1 h, 50 μM ([1]; Caco-2, pH 7.4): ~0.1 ×10⁻⁶ cm/s
O=C1C=C(c2ccc(O)cc2O)[C@@H](Cc2ccc(O)cc2)O1 [Compound 9, puerol A] | 6.27 ± 0.81 ×10⁻⁶ cm/s | 8.3 ± 1.6 ×10⁻⁶ cm/s | 1.32 | ~1 ×10⁻⁶ cm/s | 86% | 90.9% | Increase of content (fold) [3]: more than 3 fold
O=c1c(-c2ccc(O)cc2)coc2cc(O)ccc12 [Compound 10, daidzein] |  |  |  |  |  |  | Papp A→B at 90 min, 50 μM (in vitro; Caco-2, pH 7.4): 25.5 ± 0.34 ×10⁻⁶ cm/s; Papp B→A at 90 min, 50 μM (in vitro; Caco-2, pH 7.4): 26.22 ± 0.01 ×10⁻⁶ cm/s; Papp at 1 h, 50 μM (in vitro; Caco-2, pH 7.4, Absorption class by Papp): > 10 ×10⁻⁶ cm/s; Papp at 1 h, 50 μM (in vitro; Caco-2, pH 7.4, Level (order of magnitude) of Papp): ~10 ×10⁻⁶ cm/s; recovery at 90 min, 50 μM (in vitro; [6]): 93.4%; recovery at 90 min, 50 μM (in vitro; [7]): 100%; Inhibitory effect on lipopolysaccharide-induced nitric oxide production [4]: stronger than that of daidzin
O=c1c(-c2ccc(O)cc2)coc2cc(O)cc(O)c12 [Compound 11, genistein] | 32.4 ± 3.86 ×10⁻⁶ cm/s | 37.7 ± 1.93 ×10⁻⁶ cm/s | 1.16 | ~10 ×10⁻⁶ cm/s | 86.7% | 75.7% | Increase of content (fold) [3]: more than 3 fold; Papp at 1 h, 50 μM [1, 8]: > 10 ×10⁻⁶ cm/s
COc1ccc(-c2coc3cc(O)ccc3c2=O)cc1 [Compound 12, formononetin] | 30.64 ± 0.07 ×10⁻⁶ cm/s | 26.5 ± 1.1 ×10⁻⁶ cm/s | 0.87 | ~10 ×10⁻⁶ cm/s | 102% | 98% | Increase of content (fold) [3]: more than 3 fold; Papp at 1 h, 50 μM [1, 8]: > 10 ×10⁻⁶ cm/s
CC(C)NCC(O)COc1cccc2ccccc12 (stereo not drawn) [propranolol, reference compound] |  |  |  |  |  |  | Papp A→B at 1 h ([1]; Caco-2, pH 7.4): 33.7 ×10⁻⁶ cm/s

More lines, main results first:

Papp A→B at 90 min, 50 μM ([1]; Caco-2, pH 7.4) | Papp B→A at 90 min, 50 μM ([1]; Caco-2, pH 7.4) | efflux ratio at 1 h, 50 μM ([1]; Caco-2, pH 7.4) | Papp at 1 h, 50 μM [1, 5] | recovery at 90 min, 50 μM [1, 6] | recovery at 90 min, 50 μM [1, 7] | SMILES | also measured
0.45 ± 0.02 ×10⁻⁶ cm/s | 0.29 ± 0.01 ×10⁻⁶ cm/s | 0.64 |  | 98.1% | 94.4% | O=c1c(-c2ccc(O)c(O)c2)coc2c(C3OC(CO)C(O)C(O)C3O)c(O)ccc12 (stereo not drawn) [Compound 1, 3′-hydroxypuerarin] | Tmax [2]: 2 h
0.97 ± 0.01 ×10⁻⁶ cm/s | 0.53 ± 0.01 ×10⁻⁶ cm/s | 0.55 |  | 101% | 98.3% | O=c1c(-c2ccc(O)c(O)c2)coc2c([C@@H]3O[C@H](CO[C@@H]4OC[C@](O)(CO)[C@H]4O)[C@@H](O)[C@H](O)[C@H]3O)c(O)ccc12 [Compound 3, 3′-hydroxymirificin] | Content remaining ([3]; early stage (4 h) of incubation by HIF): ~25%
0.75 ± 0.09 ×10⁻⁶ cm/s | 0.47 ± 0.03 ×10⁻⁶ cm/s | 0.63 |  | 94.6% | 86.2% | COc1cc(-c2coc3c(C4OC(CO)C(O)C(O)C4O)c(O)ccc3c2=O)ccc1O (stereo not drawn) [Compound 5, 3′-methoxypuerarin] | Content remaining ([3]; at 60 h incubation by HIF): ~50%
0.29 ± 0.01 ×10⁻⁶ cm/s | 0.23 ± 0.01 ×10⁻⁶ cm/s | 0.79 |  | 99.4% | 98.5% | O=c1c(-c2ccc(O)cc2)coc2c([C@@H]3O[C@H](CO[C@@H]4OC[C@](O)(CO)[C@H]4O)[C@@H](O)[C@H](O)[C@H]3O)c(O)ccc12 [Compound 6, mirificin] | Reduction of content (fold) [3]: 10 fold
